Where two headings read alike, the source gives them in different places. Blank lines part the entries; values can stand above or below the molecule they belong to. Square brackets hold non-standard residues; d marks the D form. Ends that are not written are not given here. Peptide text beside a SMILES is read from it. Cit = NC(=O)NCCC[C@H](N)C(=O)O
Experiments:
HLA-DRB1*01:01 = target: T1, HLA-DRB1*01:01 (Homo sapiens, UniProt P01903+P01911, A100R/D57E/F55L/F60I/F76Y/I96L/L162R/M171V/P40L/Q125E/R42F/V115G/Y59C); test: HLA class II peptide binding, inhibition of radiolabeled peptide binding to purified MHC
T1 construct: EBV transformed homozygous cell lines were used as sources of MHC molecules; endogenous in cells; host or cells: EBV transformed homozygous cell lines

HLA-DRB1*04:01 = target: T2, HLA-DRB1*04:01 (Homo sapiens, UniProt P01903+P01911, A100K/A169T/F76Y/I96L/K127E/L162R/M171V/N62H/P40V/Q125Y/R42H/S133A/S149N/S66Y/V115G/V209L/W38E); test: as above
T2 construct: EBV transformed homozygous cell lines were used as sources of MHC molecules; endogenous in cells; host or cells: EBV transformed homozygous cell lines

[1] = citrullinated 15-mer peptide (X = citrulline), purified HLA-DRB1*01:01, read-out: DRB1*01:01 binding capacity, Cit peptide (IC50 nM)
[2] = citrullinated 15-mer peptide (X = citrulline), purified HLA-DRB1*04:01, read-out: DRB1*04:01 binding capacity, Cit peptide (IC50 nM)
[3] = wild-type (unmodified Arg) 15-mer peptide, purified HLA-DRB1*01:01, read-out: DRB1*01:01 binding capacity, WT peptide (IC50 nM)
[4] = wild-type (unmodified Arg) 15-mer peptide, purified HLA-DRB1*04:01, read-out: DRB1*04:01 binding capacity, WT peptide (IC50 nM)
[5] = read-out: DRB1*01:01 binding capacity, WT peptide (IC50 nM)
[6] = read-out: DRB1*04:01 binding capacity, WT peptide (IC50 nM)
[7] = citrullinated 15-mer (X), purified MHC, inhibition of radiolabeled peptide binding, dash = IC50 >40,000 nM, read-out: DRB1*01:01 binding capacity, Cit peptide (IC50 nM)
[8] = citrullinated 15-mer (X), purified MHC, inhibition of radiolabeled peptide binding, dash = IC50 >40,000 nM, read-out: DRB1*04:01 binding capacity, Cit peptide (IC50 nM)

IC50 (HLA-DRB1*01:01; [3]): 96 nM
IC50 (HLA-DRB1*04:01; [4]): 3740 nM
Molecule: CC(C)C[C@H](NC(=O)[C@H](CC(N)=O)NC(=O)[C@@H](NC(=O)[C@H](CCC(=O)O)NC(=O)[C@H](CCCNC(=N)N)NC(=O)[C@H](CC(C)C)NC(=O)[C@H](CC(N)=O)NC(=O)[C@@H](N)CC(C)C)[C@@H](C)O)C(=O)N[C@@H](CC(=O)O)C(=O)N[C@@H](CO)C(=O)N[C@@H](CC(C)C)C(=O)N1CCC[C@H]1C(=O)N[C@@H](CC(C)C)C(=O)N[C@H](C(=O)N[C@@H](CC(=O)O)C(=O)O)C(C)C [Vimentin 421 WT]

IC50 (HLA-DRB1*01:01; [1]): 34200 nM
IC50 (HLA-DRB1*04:01; [2]): 39500 nM
Molecule: CC(C)C[C@H](NC(=O)[C@H](C)NC(=O)[C@H](CC(=O)O)NC(=O)[C@@H](N)CC(N)=O)C(=O)N[C@@H](CCCNC(=N)N)C(=O)N[C@@H](CCC(N)=O)C(=O)N[C@@H](C)C(=O)N[C@@H](CCCCN)C(=O)N[C@@H](CCC(N)=O)C(=O)N[C@@H](CCC(=O)O)C(=O)N[C@@H](CO)C(=O)N[C@H](C(=O)N[C@@H](CCC(=O)O)C(=O)N[C@@H](Cc1ccc(O)cc1)C(=O)N[C@@H](CCCNC(N)=O)C(=O)O)[C@@H](C)O [NDALRQAKQESTEYX] (H-NDALRQAKQESTEY[Cit]-OH)

IC50 (HLA-DRB1*01:01; [5]): 248 nM
IC50 (HLA-DRB1*04:01; [6]): > 40000 nM
Molecule: LLAELEQLKGQGKSR [Vimentin 131 WT]

IC50 (HLA-DRB1*01:01; [3]): 826 nM
IC50 (HLA-DRB1*04:01; [4]): 6020 nM
Molecule: TLLIKTVETRDGQVI [Vimentin 441 WT]

IC50 (HLA-DRB1*01:01; [5]): 1490 nM
IC50 (HLA-DRB1*04:01; [6]): 21400 nM
Molecule: IDVDVSKPDLTAALR [Vimentin 256 WT]

IC50 (HLA-DRB1*01:01; citrullinated peptide as listed (X at Cit position), read-out: DRB1*01:01 binding capacity Cit peptide (IC50 nM)): 634 nM
IC50 (HLA-DRB1*01:01; value of the wild-type (non-citrullinated) counterpart of the listed peptide, read-out: DRB1*01:01 binding capacity WT peptide (IC50 nM)): 361 nM
IC50 (HLA-DRB1*04:01; citrullinated peptide as listed (X at Cit position), read-out: DRB1*04:01 binding capacity Cit peptide (IC50 nM)): 7060 nM
IC50 (HLA-DRB1*04:01; value of the wild-type (non-citrullinated) counterpart of the listed peptide, read-out: DRB1*04:01 binding capacity WT peptide (IC50 nM)): 8750 nM
Molecule: CC[C@H](C)[C@H](NC(=O)[C@H](CC(=O)O)NC(=O)[C@H](CCSC)NC(=O)[C@@H]1CCCN1C(=O)[C@H](C)NC(=O)[C@@H](NC(=O)[C@H](CC(=O)O)NC(=O)[C@@H](NC(=O)[C@@H](NC(=O)[C@@H]1CCCN1C(=O)[C@H](CC(C)C)NC(=O)[C@H](CCCNC(N)=O)NC(=O)[C@H](CO)NC(=O)[C@@H](NC(=O)[C@@H](N)CCCCN)[C@@H](C)O)[C@@H](C)CC)[C@@H](C)CC)[C@@H](C)CC)C(=O)O [KTSXLPIIDIAPMDI] (H-KTS[Cit]LPIIDIAPMDI-OH)

IC50 (HLA-DRB1*01:01; [7]): 1370 nM
IC50 (HLA-DRB1*04:01; [8]): 30300 nM
Molecule: CC(C)C[C@H](NC(=O)[C@H](C)NC(=O)[C@H](C)NC(=O)[C@@H](NC(=O)[C@H](CC(C)C)NC(=O)[C@H](CC(=O)O)NC(=O)[C@@H]1CCCN1C(=O)[C@H](CCCCN)NC(=O)[C@@H](N)CO)[C@@H](C)O)C(=O)N[C@@H](CCCNC(N)=O)C(=O)N[C@@H](CC(=O)O)C(=O)N[C@H](C(=O)N[C@@H](CCCNC(=N)N)C(=O)N[C@@H](CCC(N)=O)C(=O)N[C@@H](CCC(N)=O)C(=O)O)C(C)C [SKPDLTAALXDVRQQ] (H-SKPDLTAAL[Cit]DVRQQ-OH)

More lines, now with the values behind:

Molecule: CC(C)C[C@H](NC(=O)CNC(=O)[C@@H]1CCCN1C(=O)[C@H](Cc1ccccc1)NC(=O)CNC(=O)[C@H](CCCNC(N)=O)NC(=O)[C@@H](N)CCC(=O)O)C(=O)N1CCC[C@H]1C(=O)NCC(=O)N1CCC[C@H]1C(=O)N[C@@H](CO)C(=O)NCC(=O)N[C@@H](CCC(=O)O)C(=O)N1CCC[C@H]1C(=O)NCC(=O)O [EXGFPGLPGPSGEPG] (H-E[Cit]GFPGLPGPSGEPG-OH)
IC50 (HLA-DRB1*01:01; [1]): 2210 nM
IC50 (HLA-DRB1*04:01; [2]): > 40000 nM

Molecule: CC(C)C[C@H](NC(=O)CNC(=O)[C@@H](N)CC(=O)O)C(=O)N[C@@H](C)C(=O)NCC(=O)N1CCC[C@H]1C(=O)N[C@@H](CCCCN)C(=O)NCC(=O)N[C@@H](C)C(=O)N1CCC[C@H]1C(=O)NCC(=O)N[C@@H](CCC(=O)O)C(=O)N[C@@H](CCCNC(N)=O)C(=O)NCC(=O)N1CCC[C@H]1C(=O)O [DGLAGPKGAPGEXGP] (H-DGLAGPKGAPGE[Cit]GP-OH)
IC50 (HLA-DRB1*01:01; [1]): 1120 nM
IC50 (HLA-DRB1*04:01; [2]): > 40000 nM

Molecule: CC[C@H](C)[C@H](NC(=O)CN)C(=O)N[C@@H](C)C(=O)NCC(=O)N[C@@H](C)C(=O)N1CCC[C@H]1C(=O)NCC(=O)N[C@@H](Cc1ccccc1)C(=O)N1CCC[C@H]1C(=O)NCC(=O)N1CCC[C@H]1C(=O)N[C@@H](CCCNC(N)=O)C(=O)NCC(=O)N1CCC[C@H]1C(=O)N1CCC[C@H]1C(=O)O [GIAGAPGFPGPXGPP] (H-GIAGAPGFPGP[Cit]GPP-OH)
IC50 (HLA-DRB1*01:01; [1]): 565 nM
IC50 (HLA-DRB1*04:01; [2]): > 40000 nM

Molecule: CC(C)C[C@H](NC(=O)[C@H](CCCNC(N)=O)NC(=O)[C@H](CO)NC(=O)[C@H](CCCCN)NC(=O)CNC(=O)[C@H](CCC(N)=O)NC(=O)CNC(=O)[C@H](CCCCN)NC(=O)[C@H](CC(C)C)NC(=O)[C@H](CCC(N)=O)NC(=O)[C@@H](N)CCC(=O)O)C(=O)NCC(=O)N[C@@H](CC(=O)O)C(=O)N[C@@H](CC(C)C)C(=O)N[C@@H](Cc1ccc(O)cc1)C(=O)O [EQLKGQGKSXLGDLY]
IC50 (HLA-DRB1*01:01; [7]): 5380 nM
IC50 (HLA-DRB1*04:01; [8]): > 40000 nM

Molecule: CC[C@H](C)[C@H](NC(=O)[C@@H](NC(=O)[C@H](CC(=O)O)NC(=O)[C@H](CCC(N)=O)NC(=O)[C@H](Cc1ccc(O)cc1)NC(=O)[C@H](CC(N)=O)NC(=O)[C@H](C)NC(=O)[C@H](C)NC(=O)[C@H](CCC(=O)O)NC(=O)[C@@H](NC(=O)[C@H](C)NC(=O)[C@@H](N)Cc1ccccc1)C(C)C)[C@@H](C)O)C(=O)NCC(=O)N[C@@H](CCCNC(N)=O)C(=O)N[C@@H](CC(C)C)C(=O)O [FAVEAANYQDTIGXL] (H-FAVEAANYQDTIG[Cit]L-OH)
IC50 (HLA-DRB1*01:01; [1]): 642 nM
IC50 (HLA-DRB1*04:01; [2]): 768 nM

Reference: PMC5421785, “Citrullination only infrequently impacts peptide binding to HLA class II MHC” (PLoS ONE, 2017)
